# Experimental data reported in patent publication US8399435B2, “Compounds for the treatment of proliferative disorders” (Synta Pharmaceuticals Corp., priority 2005, dated 2013).
# Legend:
# [1] = test system: MES-SA/DX5 (uterine sarcoma, multidrug resistant); experiment: In vitro cytotoxicity, MTS assay, multidrug resistant MES-SA/DX5 cells; type: cell-based, human; conditions: for IC50: Homo sapiens, MES/DX5, MDR-1, 72 hours incubation; for Activity against multidrug resistant cell line MES/SA-DX compared with Taxol: comparison with Taxol
# Procedure: (§1) The in vitro cytotoxicity of the compounds of the invention was determined in the following human cell lines: HL-60 ([…]), MES-SA and MES-SA/DX5 (uterine sarcoma). MES-SA is a model of uterine sarcoma, and the cell are sensitive to a number of chemotherapeutic agents including doxorubicin, dactinomycin, mitomycin C, taxol and bleomycin, but resistant to vinblastine and cisplatin. MES-SA/Dx5 was established in the presence of increasing concentrations of doxorubicin. […] All cells were purchased from ATCC.
# (§2) The cell lines were maintained in RPMI1640 (GIBCO) supplemented with 10% FCS, 100 units/mL penicillin, 100 ug/ml streptomycin, and 2 mM L-glutamine. Cells were split every third day and diluted to a concentration of 2×10^5 cells/mL one day before the experiment was performed. All experiments were performed on exponentially growing cell cultures. Cell densities were 2.5×10^4 cells/mL in all experiments.
# (§3) Compounds of the invention were prepared by dissolving the compound at a concentration of 10 mM in 100% DMSO. Final concentrations 10, 1, 0.1, 0.01 and 0.001 μM were obtained by diluting the stock solution directly into the tissue culture medium. Cells were incubated with varying concentrations of compound 3 for 72 hours and the IC50 was determined by MTS (i.e. […]) assay. IC50 in this context stands for the concentration of compound required to inhibit 50% tumor cell growth.
# [2] = test system: HL-60 (T-cell leukemia); experiment: In vitro cytotoxicity, MTS assay, HL-60 cells; type: cell-based; conditions: Homo sapiens, HL60, Leukemia, 72 hours incubation, concentration to inhibit 50% tumor cell growth
# Procedure: as §1, §2, §3
# [3] = test system: MES-SA (uterine sarcoma); experiment: In vitro cytotoxicity, MTS assay, MES-SA cells; type: cell-based; conditions: Homo sapiens, Uterine Carcinoma, 72 hours incubation
# Procedure: as §1, §2, §3
SMILES,IC50 [1] [nM],Activity against multidrug resistant cell line MES/SA-DX compared with Taxol [1],IC50 [2] [nM],IC50 [3] [nM]
"COc1ccc(-c2cnsc2-c2cc(OC)c(OC)c(OC)c2)cc1 [Compound 3, 4-(4-methoxy-phenyl)-5-(3,4,5-trimethoxy-phenyl)-isothiazole]",80,much greater activity than Taxol,474,100
"COc1ccc(-c2cnsc2-c2cc(OC)c(OC)c(OC)c2)cc1N [Compound 64, 2-Methoxy-5-[5-(3,4,5-trimethoxy-phenyl)-isothiazol-4-yl]-phenylamine]",33,much greater activity than Taxol,25,42
"CC(=O)O[C@H]1C(=O)[C@@]2(C)[C@H]([C@H](OC(=O)c3ccccc3)[C@]3(O)C[C@H](OC(=O)[C@H](O)[C@@H](NC(=O)c4ccccc4)c4ccccc4)C(C)=C1C3(C)C)[C@]1(OC(C)=O)CO[C@@H]1C[C@@H]2O [Taxol, reference compound]",10000,–,5,5
